BindingDB's records for PubMed 39011823 (University of Lille)

target: Leucyl-cystinyl aminopeptidase (Homo sapiens) (UniProt Q9UIQ6); assay: Inhibition of IRAP (unknown origin) using L-AMC as substrate
Sequence (Q9UIQ6 whole entry, looked up): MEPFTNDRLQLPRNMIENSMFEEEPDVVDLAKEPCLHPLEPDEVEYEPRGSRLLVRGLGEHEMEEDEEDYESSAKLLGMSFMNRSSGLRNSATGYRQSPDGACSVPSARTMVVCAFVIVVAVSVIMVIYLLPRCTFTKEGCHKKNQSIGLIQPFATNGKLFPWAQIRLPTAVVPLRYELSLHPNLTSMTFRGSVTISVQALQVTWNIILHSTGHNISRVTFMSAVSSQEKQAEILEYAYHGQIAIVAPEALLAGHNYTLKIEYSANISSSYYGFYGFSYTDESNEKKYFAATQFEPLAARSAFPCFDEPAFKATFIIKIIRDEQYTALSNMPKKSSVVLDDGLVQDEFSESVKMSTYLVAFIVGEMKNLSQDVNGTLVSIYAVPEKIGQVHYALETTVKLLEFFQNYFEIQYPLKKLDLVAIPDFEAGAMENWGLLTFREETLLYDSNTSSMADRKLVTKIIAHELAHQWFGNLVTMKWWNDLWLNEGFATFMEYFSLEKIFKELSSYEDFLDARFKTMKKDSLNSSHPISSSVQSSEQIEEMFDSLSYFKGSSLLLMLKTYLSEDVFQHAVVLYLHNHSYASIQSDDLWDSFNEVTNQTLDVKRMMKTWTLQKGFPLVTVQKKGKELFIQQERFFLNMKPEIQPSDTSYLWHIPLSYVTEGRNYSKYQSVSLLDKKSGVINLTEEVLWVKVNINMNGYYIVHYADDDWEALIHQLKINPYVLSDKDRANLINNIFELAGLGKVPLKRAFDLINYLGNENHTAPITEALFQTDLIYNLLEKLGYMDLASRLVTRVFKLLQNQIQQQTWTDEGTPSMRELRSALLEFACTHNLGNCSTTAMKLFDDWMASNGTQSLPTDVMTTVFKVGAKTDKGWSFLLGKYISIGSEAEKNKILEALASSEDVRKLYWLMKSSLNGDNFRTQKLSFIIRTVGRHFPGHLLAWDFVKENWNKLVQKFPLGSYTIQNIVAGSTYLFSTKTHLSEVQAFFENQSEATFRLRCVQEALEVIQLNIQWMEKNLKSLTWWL

First: COc1ccc(C(=O)O)cc1S(=O)(=O)Nc1cc(C(F)(F)F)ccc1N1CCCCC1
Second: COc1ccc(C(=O)O)cc1S(=O)(=O)N(C)c1cc(C(F)(F)F)ccc1N1CCCCC1
The IC50 of the first is higher: greater than 200000 nM for the first, 160000 nM for the second. The second is the more potent here.

Going from `O=C(NO)[C@H](Cc1ccc(Oc2ccccc2)cc1)n1cc(CNS(=O)(=O)c2ccc(-c3ccccn3)s2)nn1` [US20240101542, Compound 23] to `COc1ccc(C[C@@H](C(=O)NO)n2cc(CNS(=O)(=O)c3ccc(-c4ccccn4)s3)nn2)cc1` [US20240101542, Compound 25], the IC50 falls from 560 nM to 186 nM (3-fold). The second is the more potent here.

Going from `CC(C)C[C@@H](CP(=O)(O)[C@@H](N)CCc1ccccc1)C(N)=O` to `CC(C)C[C@H](CP(=O)(O)[C@@H](N)CCc1ccccc1)C(N)=O`, the IC50 falls from 344 nM to 218 nM (1.6-fold).

Going from `O=C(C[C@H](Cc1ccc(O)cc1)n1nncc1CNS(=O)(=O)c1ccc(-c2ccccn2)s1)NO` [US20240101542, Compound 33] to `COc1ccc(C[C@@H](C(=O)NO)n2cc(CNS(=O)(=O)c3ccc(-c4ccccc4)s3)nn2)cc1` [US20240101542, Compound 24], the IC50 rises from 84 nM to 383 nM (4.6-fold).

First: C#C[C@H](CP(=O)(O)[C@@H](N)CCc1ccccc1)C(=O)N[C@@H](Cc1ccccc1)C(N)=O
Second: COc1ccc(C(=O)O)cc1S(=O)(=O)N(C)c1cc(C(F)(F)F)ccc1N1CCN(C)CC1
The IC50 of the first is lower: 2 nM for the first, greater than 200000 nM for the second.

target: Insulin-regulated aminopeptidase (Homo sapiens); assay: Inhibition of human recombinant IRAP expressed in baculovirus infected Sf9 cells using L-AMC as substrate incubated for 5 to 10 mins by Michaelis-Menten analysis

In order of falling IC50:
1. NC1CCc2c(Br)ccc(-c3ccccc3)c2CC1=O (stereo not drawn)  120 nM
2. NC1CCc2c(Br)ccc(Br)c2CC1=O (stereo not drawn)  34 nM

target: Leucyl-cystinyl aminopeptidase (Homo sapiens) (UniProt Q9UIQ6); assay: Inhibition of IRAP (unknown origin) using L-pNA as substrate

In the case of `O=S(=O)(Nc1ccccc1)c1ccccc1` [phenyl(phenylsulfonyl)amine], the IC50 is reported as 2100 nM.
